Assays:
[1] = tested on: bone marrow cells of Crlj:CD1(ICR) male mouse; assay: Micronucleus test; assay type: in vivo; settings: single oral administration 250-2000 mg/kg, 24 and 48 hours
Method: In order to study mutagenicity (in vivo) of Compounds 3 and 7, induction of micronucleated polychromatic erythrocyte (hereinafter referred to as MNPCE) was examined using bone marrow cells of Crlj:CD1(ICR) male mouse.
0 mg/kg (negative control group), 250, 500, 1000 and 2000 mg/kg (test sample group) were set as doses for the test. Mice were sacrificed 24 and 48 hours after single oral administration, and bone marrow smear was prepared and observed. Further, a single dose of MMC at 2 mg/kg was abdominally administrated in positive control group, mice were sacrificed 24 hours after the administration, and then bone marrow smear was prepared and observed.
As statistical analysis, significance tests were conducted by Wilcoxon rank sum test for the appearance frequency of MNPCE and the ratio of polychromatic erythrocyte (hereinafter referred to as PCE) to the total red blood cell (hereinafter referred to as RBC) in each administration group concerning the test sample and positive control groups relative to the negative control group and concerning these groups relative to each other where the significance level was set to less than 5% and less than 1%, respectively.

[2] = tested on: Salmonella typhimurium TA100; assay: Reverse mutation test (Ames test), TA100; assay type: cell-based
Method: (§1) In order to examine gene mutagenicity of Compounds 3, 5 and 8, reverse mutation test using Salmonella typhimurium TA98 and TA100 (hereinafter referred to as Ames test) was conducted.
(§2) The test was conducted without addition of S9mix and with addition of S9mix. Dimethylsulfoxide (hereinafter referred to as DMSO) was used as a negative control. A positive control was 2-(2-furyl)-3-(5-nitro-2-furyl)acrylamide (hereinafter referred to as AF-2) in case S9mix was not added, and 2-aminoanthracene (hereinafter referred to as 2-AA) in case S9mix was added.
(§3) As a sample solution to be added to a test plate, each compound was dissolved in DMSO to prepare a solution at a concentration of 50 mg/mL, and further, each solution was diluted with DMSO to prepare a solution with 7 dosage (geometric ratio 3). As a sample solution for preparing a sample of positive control, when TA98 was used as a test strain without addition of S9mix, a solution of AF-2 (compound concentration: 1 μg/mL) in DMSO was prepared; when TA100 was used as a test strain without addition of S9mix, a solution of AF-2 (compound concentration: 0.1 μg/mL) in DMSO was prepared; when TA98 was used as a test strain with addition of S9mix, a solution of 2-AA (compound concentration: 5 μg/mL) in DMSO was prepared; and when TA100 was used as a test strain with addition of S9mix, a solution of 2-AA (compound concentration: 10 μg/mL) in DMSO was prepared.
(§4) After each sample solution to be examined and a test strain (TA98 or TA100) were mixed together so as to make the addition amount of each sample to be 0.1 mL/plate, the mixture was multilayered using soft agar on a medium of a test plate, and then incubated at 37° C. for 48 hours. Separately, after each sample solution to be examined, S9mix and a test strain were mixed together so as to make the addition amount of each sample to be 0.1 mL/plate, the mixture was multilayered using soft agar on a medium of a test plate, and then incubated at 37° C. for 48 hours. On the other hand, only DMSO was used as a sample solution to perform the same procedure as above for the negative control. […]

[3] = tested on: Salmonella typhimurium TA98; assay: Reverse mutation test (Ames test), TA98; assay type: cell-based
Method: as §1, §2, §3, §4

[4] = molecular target: T1, aggregated Aβ (Aβ1-42) amyloid (Homo sapiens, UniProt P05067); assay: In vitro binding test: inhibition of [^125I]3′-I-BTA-0 binding to amyloid
T1 construct: Aβ1-42 (manufactured by Wako) was dissolved in phosphate buffer (pH 7.4); purchased Wako
Method: Affinity of the present compounds with amyloid was examined by the following in vitro binding tests.
The measured radioactivity level was defined as the background radioactivity level, and used in the calculation of the inhibition ratio (hereinafter referred to as BG).
(9) Using the radioactivity levels measured above in (7) and (8), the inhibition ratio was determined by the following formula (1).
A graph in which values converted by probit transformation from the obtained inhibition ratios were plotted relative to logarithms of concentrations of compounds for evaluation was prepared to obtain an approximate straight line by the least square method.

[5] = TA100, without addition of S9mix
[6] = TA98, without addition of S9mix

T1 sequence (P05067 672-713): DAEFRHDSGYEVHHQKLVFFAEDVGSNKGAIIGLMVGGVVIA

OCCOc1ccc(-c2cn3cc(I)ccc3n2)cc1 [Compound 3, 2-[4′-(2″-hydroxyethoxy)phenyl]-6-iodoimidazo[1,2-a]pyridine]
Mutagenicity (in vivo), induction of MNPCE [1]: negative | Mutagenicity ([2]; TA100, with addition of S9mix): Negative | Mutagenicity [2, 5]: Negative | Mutagenicity ([3]; TA98, with addition of S9mix): Negative | Mutagenicity [3, 6]: Negative | IC50 ([4]; [^125I]3′-I-BTA-0 400 pmol/L, amyloid 1 μmol/L, 22° C., 3 hours): 66.9 nM | IC50 ([4]; unit inferred): < 100 nM

OCCCOc1ccc(-c2cn3cc(I)ccc3n2)cc1 [Compound 7, 2-[4′-(3″-hydroxypropoxy)phenyl]-6-iodoimidazo[1,2-a]pyridine]
Mutagenicity (in vivo), induction of MNPCE [1]: negative | Mutagenicity ([2]; TA100, with addition of S9mix): Negative | Mutagenicity [2, 5]: Negative | Mutagenicity ([3]; TA98, with addition of S9mix): Negative | Mutagenicity [3, 6]: Negative

— patent US20100249419A1, “UTILIZATION OF NOVEL COMPOUNDS WITH AMYLOID AFFINITY AND METHOD OF PRODUCING THE SAME” (NIHON MEDI-PHYSICS CO., LTD., priority 2007, published 2010)
